Non-standard residues stand in square brackets, D forms with d. Residues, ends and D or L forms follow the SMILES beside them. No end group written: not given here. ξ: configuration not given here. hArg = N=C(N)NCCCC[C@H](N)C(=O)O; Dab = NCC[C@H](N)C(=O)O; Dap = NC[C@H](N)C(=O)O; ξP = O=C(O)C1CCCN1

In general, inhibition refers to the change of the read-out against control, counted positive when it falls. One may read the half-life as the time needed for the level to fall by half in the phase considered.

For one series, the target named is T1, NRP-1 (Rattus norvegicus, UniProt Q9QWJ9).
T1 construct: purchased R&D Systems
T1 sequence (Q9QWJ9 with tags, fused parts or gaps limits assumed): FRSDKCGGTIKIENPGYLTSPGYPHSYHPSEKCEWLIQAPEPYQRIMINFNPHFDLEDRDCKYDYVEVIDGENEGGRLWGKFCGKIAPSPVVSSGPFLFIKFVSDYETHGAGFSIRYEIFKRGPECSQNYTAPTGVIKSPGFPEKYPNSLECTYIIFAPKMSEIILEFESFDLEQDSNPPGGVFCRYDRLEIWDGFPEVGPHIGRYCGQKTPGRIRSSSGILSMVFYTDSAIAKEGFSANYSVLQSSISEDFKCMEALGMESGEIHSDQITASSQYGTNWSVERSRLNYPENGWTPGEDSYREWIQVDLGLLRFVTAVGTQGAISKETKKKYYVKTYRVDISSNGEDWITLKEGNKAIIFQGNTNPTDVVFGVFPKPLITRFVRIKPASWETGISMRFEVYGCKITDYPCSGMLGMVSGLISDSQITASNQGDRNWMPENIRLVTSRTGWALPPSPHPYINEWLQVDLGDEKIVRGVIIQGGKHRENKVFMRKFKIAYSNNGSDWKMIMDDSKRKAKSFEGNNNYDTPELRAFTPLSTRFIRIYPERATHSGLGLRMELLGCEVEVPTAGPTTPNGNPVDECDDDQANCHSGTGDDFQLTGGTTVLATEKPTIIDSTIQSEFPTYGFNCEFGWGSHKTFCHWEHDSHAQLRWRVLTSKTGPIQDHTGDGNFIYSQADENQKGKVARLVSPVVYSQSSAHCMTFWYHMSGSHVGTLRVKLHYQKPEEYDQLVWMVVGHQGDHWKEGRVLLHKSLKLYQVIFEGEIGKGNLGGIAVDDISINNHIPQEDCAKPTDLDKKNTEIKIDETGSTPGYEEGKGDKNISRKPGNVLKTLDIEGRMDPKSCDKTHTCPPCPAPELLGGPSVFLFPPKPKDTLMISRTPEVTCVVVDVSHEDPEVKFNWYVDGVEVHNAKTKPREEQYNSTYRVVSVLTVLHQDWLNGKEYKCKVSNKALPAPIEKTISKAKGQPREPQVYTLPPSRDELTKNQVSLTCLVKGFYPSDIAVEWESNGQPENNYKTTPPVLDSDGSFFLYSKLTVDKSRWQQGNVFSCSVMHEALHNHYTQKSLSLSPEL
Description: VEGF165 displacement assay (inhibition of VEGF165 to NRP-1 binding). As to conditions: biotinylated VEGF165 1 nM; for inhibition at 0.03 µM: compound 0.03 μM; for inhibition at 0.1 µM: compound 0.1 μM; for inhibition at 0.3 µM: compound 0.3 μM; for inhibition at 1 µM: compound 1 μM. On the procedure: Antiangiogenic properties were evaluated in vitro by measuring the inhibition of VEGF165 to NRP-1 binding. This test makes it possible to evaluate the % inhibition by the evaluated compound at a particular concentration.
The evaluation of the inhibitory effect of peptidomimetics were performed using an enzymatic method denoting the spectrophotometric displacement of the VEGF165 ligand from a bond with the specific receptor Neuropilin-1 by the evaluated compound. The studies were performed using polystyrene 96-well plates (Maxisorb, Nunc.).
To evaluate the biological inhibitory activity of selected molecules, the surfaces of flat bottom polystyrene wells of 96-wells plates (Maxisorb, Nunc,) was treated with 100 ul of 2 ug/ml anti-Fc IgG (Sigma-Aldrich, Saint Quentin Fallavier, France) in phosphate buffer saline (PBS, Sigma) overnight at 4° C. After washing and saturation of non-specific interactions with bovine serum albumin (BSA, Sigma), purified recombinant rat NRP1-Fc (20 ng/well, R&D Systems, Abingdon, UK) in 50 μl PBS-BSA 0.1%-tween-80 0.005% (PBT), […] VEGF165 (final concentration 1 nM, R&D Systems) diluted in PBT containing 2 μg/ml of heparin (Sigma) were successively added to a final volume of 150 μl. After an overnight incubation at 4° C., the wells were washed with PBT and treated with streptavidin-HRP polymer (Sigma) followed by washing and addition of ABTS substrate (Sigma). The DO measures were performed at 415 nm in reference to 470 nm after 15 minutes-2 h of reaction. […] In the control wells, the tested compound was absent but the respective concentration of DMSO was maintained. The heptapeptide A7R (ATWLPPR) was routinely used as a positive control for each plate.

Series [1] is described as follows: In vitro peptidomimetic stability in human plasma (LC/MS). Type of series: in vitro ADME. As to conditions: 37° C.; for half-life at 0.35 μmol/mL: human plasma from healthy donors, TFA salt, read-out: half-life time; for main enzymatic cleavage / degradation products: human plasma. On the procedure: The stability of two peptidomimetics: Lys(hArg)-Dap-Pro-Arg and Lys(hArg-Pro-Dab-Arg were tested in plasma samples obtained from healthy donors. Peptidomimetics stock solutions were prepared by dissolving the TFA salt of proper peptidomimetic in water to obtain a final peptidomimetic concentration of 0.7 μmol/mL. In a Eppendorf tube, samples of 100 μL of human plasma were temperature-equilibrated at 37° C. for 15 minutes before adding 100 μL of peptidomimetic stock solution. Three tubes allowed the analysis for each time point. The initial time was recorded and at known time intervals (every 10 minutes from 0 sec to 3 h), 400 μL of solution of TCA in 99.8% ethanol (CTCA=0.2%) was added to the reaction solution for precipitation of the serum proteins. The cloudy reaction sample was shaken and then spun at 2000 g to pellet the precipitated serum proteins. The reaction supernatant was then analyzed by LC/MS analysis (using a RP-HPLC-ESI-MS system).

As for ATWLPPR [A7R, reference compound], the “% inhibition of VEGF165 to NRP-1 binding” value on NRP-1 (compound 3 μM) amounted to 61.2%; on NRP-1 (compound 10 μM) it was 76.9%; at NRP-1 (compound 30 μM) it was 85.5%.

Take `N=C(N)NCCCC[C@H](N)C(=O)NCCCC[C@H](N)C(=O)N[C@@H](CN)C(=O)N1CCC[C@H]1C(=O)N[C@@H](CCCNC(=N)N)C(=O)O` [compound 3, Lys(hArg)-Dap-Pro-Arg] (H-K(hArg)[Dap]PR-OH): at NRP-1, the inhibition at 0.03 µM was determined as 11.6%, 0.1 µM produced 33% inhibition, the inhibition at 0.3 µM is 59.4% and 1 µM produced 82% inhibition. At 3 µM the inhibition at NRP-1 (compound 3 μM) was 93.4%. Besides, the inhibition at 10 µM on NRP-1 (compound 10 μM) stood at 96.8%. Moreover, testing at 30 µM at NRP-1 (compound 30 μM) gave an inhibition of 99.7%. In series [1], the half-life at 0.35 μmol/mL was ~2.33 h; the “main enzymatic cleavage / degradation products” value was “between the first and second residue”.

On NRP-1, `N=C(N)NCCCC[C@H](N)C(=O)NCCCC[C@H](N)C(=O)N1CCCC1C(=O)N[C@@H](CCN)C(=O)N[C@@H](CCCNC(=N)N)C(=O)O` (stereo partly drawn) [compound 2, Lys(hArg)-Pro-Dab-Arg] (H-K(hArg)[ξP][Dab]R-OH) yielded an inhibition at 0.03 µM of 13.7%, an inhibition at 0.1 µM of 35.4%, an inhibition at 0.3 µM of 62.2% and an inhibition at 1 µM of 82.6%. Further, the inhibition at 3 µM at NRP-1 (compound 3 μM) is 93.6%. In addition, at 10 µM the inhibition on NRP-1 (compound 10 μM) was 98.3%. At NRP-1 (compound 30 μM), this compound registered an inhibition at 30 µM of 100%. Besides, in series [1], the half-life at 0.35 μmol/mL is 0.667 h; the “main enzymatic cleavage / degradation products” value is “to Lys(hArg)-Pro and Dab-Arg”.

At NRP-1, `N=C(N)NCCCC[C@H](N)C(=O)NCCCC[C@H](N)C(=O)N[C@@H](CCN)C(=O)N1CCC[C@H]1C(=O)N[C@@H](CCCNC(=N)N)C(=O)O` [compound 4, Lys(hArg)-Dab-Pro-Arg] (H-K(hArg)[Dab]PR-OH) showed an inhibition at 0.1 µM of 21.6%, an inhibition at 0.3 µM of 47.8% and an inhibition at 1 µM of 82.4%. In addition, at 3 µM the inhibition at NRP-1 (compound 3 μM) was 91.4%. The same compound had an inhibition at 10 µM at NRP-1 (compound 10 μM) of 98.5%. Besides, on NRP-1 (compound 30 μM), the inhibition at 30 µM stood at 100%.

These data come from patent US10301352B2, “Peptidomimetics with antiangiogenic activity” (UNIWERSYTET WARSZAWSKI, priority 2013, dated 2019).
